Key:
[1] = test system: corpus cavernosal strips (CCS); test: EFS-induced cGMP in CCS of ADA+ and ADA-/- mice; type: cell-based, mouse; conditions: EFS 5V 30 Hz, MRS1706 (10 nM), ZM241385 (50 nM), L-NAME (100 μM)
Description: FIG. 19. EFS leads to increased cAMP and cGMP production via A2BR in ADA-deficient mice. (a-b) Corpus cavernosal strips (CCS) of the ADA−/− and ADA+ mice were isolated and treated with 10 μM phenylephrine (PE) to induce precontraction. Then CCS were treated with MRS1706 (10 nM), ZM241385 (50 nM) or L-NAME (100 μM) prior to electrical field stimulation (EFS) at 5V and 30 Hz. 60 second after nerve stimulation, the CCS were quickly frozen and cellular cAMP (a) and cGMP (b) were measured by using commercial enzyme immunoassay kit (Amersham Pharmacia). N=4. Data are expressed as mean±SE. *p<0.05, ADA deficient mice versus the control; **p<0.05, CCS of ADA-deficient mice with MRS1706 and/or L-NAME treatment versus CCS of ADA-deficient mice without treatment; ***p<0.05, CCS of the control mice with MRS1706 and/or L-NAME treatment versus CCS of the control mice without treatment.
Function experiments. […] The contractility of each isolated corpus cavernosum smooth muscle cells (CCSM) strip was measured using an isometric force transducer (AD Instrument Inc., Georgia, Vt., USA). […] The contractile responses of the strips were analysed by adding 10 μM phenylephrine to the bath, and force changes were recorded in response to drug application and to electrical field stimulation. […]

[2] = test system: corpus cavernosum of wild type, A2A-deficient and A2B-deficient mice; test: Intracavernous injection of adenosine: intracavernous pressure (ICP) and penile erection; type: in vivo, mouse
Description: FIG. 6. Different amounts of adenosine were injected into the corpus cavernosum of wild type, adenosine receptor A2A-deficient, and adenosine receptor A2B-deficient mice and the resulting change in ICP determined.
Methods: ADA-deficient mice and SCD transgenic mice, a well accepted priapism animal model, are the only animals known in which a persistent and prolonged penile erection occurs spontaneously. […] We have measured intracavernosal pressure and corpus cavernosal strip (CCS) relaxation with or without PEG-ADA treatment and/or a series of adenosine receptor antagonists or agonists in wild type ADA-deficient mice, and corpus cavernosal strip (CCS) relaxation with or without PEG-ADA treatment and/or a series of adenosine receptor antagonists or agonists in SCD transgenic mice, in response to nerve stimulation. We have also measured the intracavernosal pressure and CCS relaxation with or without adenosine treatment in wild type and multiple adenosine receptor deficient mice.

In the case of `CCCn1c(=O)c2[nH]c(-c3ccc(OCC(=O)Nc4ccc(C(C)=O)cc4)cc3)nc2n(CCC)c1=O` [MRS1706], the “EFS-increased levels of cGMP were inhibited” value [1] is reported as “significantly inhibited”.

`Nc1nc(NCCc2ccc(O)cc2)nc2nc(-c3ccco3)nn12` [ZM241385] was tested, and the “EFS-increased levels of cGMP were inhibited” value [1] was “not”.

With `Nc1ncnc2c1ncn2[C@@H]1O[C@H](CO)[C@@H](O)[C@H]1O` [adenosine] the “adenosine-induced increase in ICP” value ([2]; A2B-deficient mice, injection into the corpus cavernosum) was “significantly reduced”, the “intracavernous pressure (ICP) and its duration” value ([2]; wild type mice, administration of adenosine) was “induced an increase in intracavernous pressure (ICP) and its duration” and the penile erection ([2]; wild type mice, local (intracavernous) injection) was “resulted in penile erection”.

Source: US20100254965A1, “Adenosine Signaling in Diagnosis, Treatment, and Prevention of Priapism and Erectile Dysfunction” (BOARD OF REGENTS ,THE UNIVERSITY OF TEXAS SYSTEM, priority 2006, published 2010)
